Results published in paper PMC10691236 (Proceedings of the National Academy of Sciences of the …, 2023).
Read-outs that look alike come from different tables or passages of the source. Values belong to the compound of their own block, whether it stands above or below them.

Experiments:
[1] = target: T1, luciferase-CDK2/cyclin E1 in HEK293 cells (Homo sapiens, UniProt P24941); assay: cell-based; conditions: for IC50: average ± SD, n = 6, read-out: IC50, inhibition of luciferase-CDK2/cyclin E1 nanoBRET signal; for inhibition at 50 µM: nanoBRET, read-out: inhibition at the highest concentration tested (IC50 ND)
T1 construct: NV2641 (CCNE1); host or cells: HEK293 (ATCC CRL-1573)
Description: HEK293 cells were cultured in Roswell Park Memorial Institute (RPMI) (Invitrogen) with 10% fetal bovine serum (FBS; Invitrogen). For transfection, HEK293 cells were trypsinized and resuspended in Opti-MEM I Reduced Serum, no phenol red medium (Invitrogen) with 1% FBS at a concentration of 2 × 10^5 cells/mL. Five hundred microliters of a 10 μg/mL solution of DNA was prepared by adding 1 μg/mL of CDK2-NanoLuc Fusion Vector (Promega; NV2781) to 9 μg/mL of CCNE1 Expression Vector (Promega; NV2641) in Opti-MEM I Reduced Serum, no phenol red media. Thirty microliters of FuGENE HD Transfection Reagent (Promega) was added to each milliliter of DNA mixture. The lipid-DNA mixture was incubated at room temperature for 20 min.
Posttransfection, the media were replaced with fresh Opti-MEM I Reduced Serum, no phenol red medium. NanoBRET Tracer reagent K-10 […] was added at a concentration of […] (1% DMSO final) along with 0.2% DMSO (± inhibitor). […] Following incubation, plates were removed from the incubator and allowed to equilibrate to room temperature for 15 min. A 3× Complete Substrate Plus Inhibitor Solution was made by adding 30 μL of NanoBRET Nano-Glo Substrate (Promega), 10 μL of Extracellular NanoLuc Inhibitor (Promega), and 4,960 μL of Opti-MEM reduced serum medium, no phenol red (Invitrogen). […] IC50 values were calculated from the dose–response curves using Prism 9 (four-parameter, variable slope). Experiments were performed in triplicate with technical duplicates in each run.

CDK2/cyclin E1 = CDK2/cyclin E1 (Homo sapiens, UniProt P24941); assay: CDK2/cyclin E1 ATPase assay (ADP-Glo; phosphorylation of histone H1)
Description: Following a 30-min preincubation of the enzyme and inhibitor in the reaction mixture at room temperature, reactions were initiated with the addition of ATP and histone H1. Kinase reactions were carried out at room temperature for 30 min before reactions were quenched with the addition of one volume of ADP-Glo™ reagent (Promega). Following a 60-min incubation at room temperature to remove excess ATP, two volumes of Kinase Detection Reagent (Promega) were added to the sample. The luminescence signal was allowed to develop for 30 min before being measured on a Spark multimode plate reader (Tecan). […] IC50 values were calculated from the dose–response curves using Prism 9 (four-parameter, variable slope).

[2] = set-up: method as in PMID 27537356; conditions: isolated from A. fumigatus and P. roseopurpurin; ref [30], [31]; cited from earlier work
[3] = read-out: IC50, inhibition of CDK2/cyclin E1-dependent phosphorylation of Histone H1, commercially available depsides and depsidones, n=2
[4] = from CDK2/cyclin E1 IC50 values (Fig. 3B)

IC50 [1]: 27 ± 7 µM
IC50 (CDK2/cyclin E1): 6.1 ± 0.5 µM
SMILES: Cc1cc(O)c(C)c2c1Oc1c(C)c(O)cc(C)c1C(=O)O2 [compound 8, 3,8-dihydroxy-1,4,6,9-tetramethyl-dibenzo[b,e][1,4]dioxepin-11-one]

SMILES: CO[C@@]1(C)[C@H](O)C(=O)C(C)=C2OC(=O)c3c(C)cc(O)c(C)c3O[C@@H]21 [compound 1, roseopurpurin C]
cytotoxicity [2]: generally cytotoxic

SMILES: C/C=C(/C)c1cc(O)c(C)c2c1Oc1c(C)c(O)cc(/C(C)=C\C)c1C(=O)O2 [folipastatin, reference compound]
IC50 (CDK2/cyclin E1; [3]): 24 µM

SMILES: C/C=C(\C)c1cc(O)c(C)c2c1Oc1cc(O)cc(C)c1C(=O)O2 [unguinol, Unguinol, reference compound]
IC50 (CDK2/cyclin E1; [3]): 14 µM

SMILES: CO[C@@]1(C)[C@H](O)C(O)=C(C)C(=O)[C@@H]1Oc1cc(C)cc(O)c1C [compound 11, aculeatusquinone C]
inhibition at 50 µM [1]: ≤ 50%
IC50 (CDK2/cyclin E1): 42 ± 2 µM
fold reduction in activity/potency relative to 1 (CDK2/cyclin E1; [4]): approximately 900 fold

SMILES: Cc1cc(O)c(C)c2c1C(=O)Oc1c(C)c(O)c(C(=O)O)c(C)c1O2 [compound 7, hypoprotocetraric acid]
improvement of potency by addition of the 4-OH, relative to 8 (CDK2/cyclin E1; [4]): approximately ninefold

effect on luminescence values in CDK2/cyclin E1 ADP-detection assay (CDK2/cyclin E1; commercial compound screen, n=2): increased luminescence values
SMILES: Cc1cc(O)c(C=O)c2c1C(=O)Oc1c(COC(=O)/C=C/C(=O)O)c(O)c(C(=O)O)c(C)c1O2 [Fumarprotocetriaric acid, fumarprotocetraric acid, reference compound]

SMILES: Cc1cc(O)c(C)c(O)c1C(=O)Oc1cc(C)c(C(=O)O)c(O)c1C [compound 6, 4-o-demethyl barbatic acid]
inhibition at 50 µM [1]: ≤ 50%
inhibition at 100 µM (CDK2/cyclin E1; read-out: inhibition at the highest concentration tested (IC50 ND)): ≤ 50%

SMILES: Cc1cc(O)c(C)c2c1C(=O)Oc1c(C)c(O)c(O)c(C)c1O2 [compound 10, roseopurpurin G]
IC50 [1]: 40 ± 20 µM
cytotoxicity [2]: generally cytotoxic
IC50 (CDK2/cyclin E1): 0.7 ± 0.1 µM
